Data on three compounds can be found in ChEMBL document CHEMBL2311450, “Synthesis and antibacterial evaluation of novel 11,4″-disubstituted azithromycin analogs with greatly improved activity against erythromycin-resistant bacteria” (2013).

In brackets after ≈: the same amount, converted by molar mass.

The subject of test [1] is Salmonella typhimurium. Description: Antibacterial activity against Salmonella typhimurium TA102 by broth microdilution method. The note with it: Salmonella enterica. It counts as functional, Salmonella enterica subsp. enterica serovar Typhimurium. (In general: Broth dilution looks for growth in wells or tubes with falling amounts of substance.)
Test [2] concerns Salmonella typhimurium. Kind of test: Antibacterial activity against Salmonella typhimurium TA98 by broth microdilution method. It counts as functional, Salmonella enterica subsp. enterica serovar Typhimurium. The note with it: Salmonella enterica.
The subject of test [3] is Streptococcus pneumoniae. Kind of test: Ratio of azithromycin MIC to compound MIC for erythromycin-resistant Streptococcus pneumoniae AB11 expressing erm and mef genes. It counts as functional.
Test [4] relates to Streptococcus pneumoniae. Description: Ratio of azithromycin MIC to compound MIC for erythromycin-resistant Streptococcus pneumoniae A22072 expressing mef gene. It counts as functional.
Test [5] has as its system Streptococcus pneumoniae. Kind of test: Ratio of azithromycin MIC to compound MIC for erythromycin-resistant Streptococcus pneumoniae B1. It counts as functional.
Test [6] concerns Streptococcus pyogenes. Kind of test: Antibacterial activity against erythromycin-resistant Streptococcus pyogenes RE clinical isolate by broth microdilution method. It counts as functional.
Test [7] relates to Streptococcus pyogenes. Description: Antibacterial activity against erythromycin-susceptible Streptococcus pyogenes by broth microdilution method. It counts as functional.
Test [8] has as its system Staphylococcus aureus. Kind of test: Antibacterial activity against methicillin-susceptible Staphylococcus aureus ATCC 29213 by broth microdilution method. It counts as functional.
In test [9] the test system is Staphylococcus aureus. Description: Antibacterial activity against penicillin-resistant Staphylococcus aureus clinical isolate by broth microdilution method. It counts as functional.
For test [10], the system named is Staphylococcus aureus. Description: Antibacterial activity against erythromycin-susceptible Staphylococcus aureus ATCC 25923 by broth microdilution method. It counts as functional.
The subject of test [11] is Streptococcus pneumoniae. Description: Antibacterial activity against erythromycin-resistant Streptococcus pneumoniae AB11 expressing erm and mef genes by broth microdilution method. It counts as functional.
Test [12] relates to Streptococcus pneumoniae. Kind of test: Antibacterial activity against erythromycin-resistant Streptococcus pneumoniae A22072 expressing mef gene by broth microdilution method. It counts as functional.
Test [13] concerns Streptococcus pneumoniae. Kind of test: Antibacterial activity against erythromycin-resistant Streptococcus pneumoniae B1 expressing erm gene by broth microdilution method. It counts as functional.
In test [14] the test system is Streptococcus pneumoniae. Kind of test: Antibacterial activity against erythromycin-susceptible Streptococcus pneumoniae ATCC 49619 by broth microdilution method. It counts as functional.

Take `CC[C@H]1OC(=O)[C@H](C)[C@@H](O[C@H]2C[C@@](C)(OC)[C@@H](OC(=O)NCCCCNC(=O)c3cc([N+](=O)[O-])cc([N+](=O)[O-])c3)[C@H](C)O2)[C@H](C)[C@@H](O[C@@H]2O[C@H](C)C[C@H](N(C)C)[C@H]2O)[C@](C)(O)C[C@@H](C)CN(C)[C@H](C)[C@@H](OC(=O)NCc2ccc(F)c(F)c2)[C@]1(C)O`: the MIC worked out at 0.5 µg/mL (≈ 0.408 µM) against Salmonella typhimurium [1]; 1 µg/mL (≈ 0.815 µM) with Salmonella typhimurium [2]; 16 µg/mL (≈ 13 µM) in the test on Streptococcus pyogenes [6]; 2 µg/mL (≈ 1.63 µM) against Streptococcus pyogenes [7]; 4 µg/mL (≈ 3.26 µM) against Staphylococcus aureus [8]; 4 µg/mL (≈ 3.26 µM) in the test on Staphylococcus aureus [9]. Also, the MIC with Staphylococcus aureus [10] was found to be 0.25 µg/mL (≈ 0.204 µM); in the test on Streptococcus pneumoniae [11], 2 µg/mL (≈ 1.63 µM); against Streptococcus pneumoniae [12], 0.03 µg/mL (≈ 0.0245 µM); in the test on Streptococcus pneumoniae [13], 0.25 µg/mL (≈ 0.204 µM); against Streptococcus pneumoniae [14] it was 0.03 µg/mL (≈ 0.0245 µM). Also, the values for the Ratio in the test on Streptococcus pneumoniae [3], in the test with Streptococcus pneumoniae [4] and with Streptococcus pneumoniae [5] were 128, 133 and 512, respectively.
On to `CC[C@H]1OC(=O)[C@H](C)[C@@H](O[C@H]2C[C@@](C)(OC)[C@@H](OC(=O)NCCCCNC(=O)c3cc([N+](=O)[O-])cc([N+](=O)[O-])c3)[C@H](C)O2)[C@H](C)[C@@H](O[C@@H]2O[C@H](C)C[C@H](N(C)C)[C@H]2O)[C@](C)(O)C[C@@H](C)CN(C)[C@H](C)[C@@H](OC(=O)NCCc2ccccc2Cl)[C@]1(C)O`, for which the MIC turned out to be 0.25 µg/mL (≈ 0.202 µM) against Salmonella typhimurium [1]; 1 µg/mL (≈ 0.807 µM) against Salmonella typhimurium [2]; 16 µg/mL (≈ 12.9 µM) in the test on Streptococcus pyogenes [6]; 1 µg/mL (≈ 0.807 µM) against Streptococcus pyogenes [7]; 4 µg/mL (≈ 3.23 µM) against Staphylococcus aureus [8]; 2 µg/mL (≈ 1.61 µM) against Staphylococcus aureus [9]. For the same compound, the MIC with Staphylococcus aureus [10] stood at 0.12 µg/mL (≈ 0.0969 µM); against Streptococcus pneumoniae [11], 2 µg/mL (≈ 1.61 µM); against Streptococcus pneumoniae [12], 0.03 µg/mL (≈ 0.0242 µM); with Streptococcus pneumoniae [13], 0.25 µg/mL (≈ 0.202 µM); in the test on Streptococcus pneumoniae [14], 0.03 µg/mL (≈ 0.0242 µM). Moreover, the results for the Ratio with Streptococcus pneumoniae [3], in the test on Streptococcus pneumoniae [4] and with Streptococcus pneumoniae [5] were 128, 133 and 512, respectively.
In the case of `CC[C@H]1OC(=O)[C@H](C)[C@@H](O[C@H]2C[C@@](C)(OC)[C@@H](OC(=O)NCCCCNC(=O)c3cc([N+](=O)[O-])cc([N+](=O)[O-])c3)[C@H](C)O2)[C@H](C)[C@@H](O[C@@H]2O[C@H](C)C[C@H](N(C)C)[C@H]2O)[C@](C)(O)C[C@@H](C)CN(C)[C@H](C)[C@@H](OC(=O)NCCc2ccc(OC)cc2)[C@]1(C)O`, the MIC is 0.5 µg/mL (≈ 0.405 µM) against Salmonella typhimurium [1]; 1 µg/mL (≈ 0.81 µM) against Salmonella typhimurium [2]; 16 µg/mL (≈ 13 µM) in the test on Streptococcus pyogenes [6]; 1 µg/mL (≈ 0.81 µM) against Streptococcus pyogenes [7]; 4 µg/mL (≈ 3.24 µM) against Staphylococcus aureus [8]; 4 µg/mL (≈ 3.24 µM) with Staphylococcus aureus [9]. The MIC against Staphylococcus aureus [10] was 0.25 µg/mL (≈ 0.203 µM); against Streptococcus pneumoniae [11], 2 µg/mL (≈ 1.62 µM); in the test on Streptococcus pneumoniae [12] it was 0.03 µg/mL (≈ 0.0243 µM); with Streptococcus pneumoniae [13] it was 0.25 µg/mL (≈ 0.203 µM); against Streptococcus pneumoniae [14] it was 0.03 µg/mL (≈ 0.0243 µM). In addition, the values for the Ratio in the test on Streptococcus pneumoniae [3], with Streptococcus pneumoniae [4] and with Streptococcus pneumoniae [5] were 128, 133 and 512, respectively.

In general, MIC refers to the lowest concentration found to suppress growth.
